Experimental data: PMC6412019, “Discovery of NV-5138, the first selective Brain mTORC1 activator” (Scientific Reports, 2019)
Values joined by “and” are separate entries in the source; they are usually repeats but may differ in a detail not shown here. Equal values may be shown once. “Also recorded” adds a separate entry of the source.

Columns and labels:
Sestrin1 = target: T1, Sestrin1 (Homo sapiens, UniProt Q9Y6P5); assay: Cellular thermal shift assay (CETSA), intracellular Sestrin1 in HEK-293T cells; assay type: cell-based; details: 30 min, leucine-starved HEK293T cells, read-out: increase of melting temperature of intracellular Sestrin1
T1 sequence (Q9Y6P5 67-492 limits assumed): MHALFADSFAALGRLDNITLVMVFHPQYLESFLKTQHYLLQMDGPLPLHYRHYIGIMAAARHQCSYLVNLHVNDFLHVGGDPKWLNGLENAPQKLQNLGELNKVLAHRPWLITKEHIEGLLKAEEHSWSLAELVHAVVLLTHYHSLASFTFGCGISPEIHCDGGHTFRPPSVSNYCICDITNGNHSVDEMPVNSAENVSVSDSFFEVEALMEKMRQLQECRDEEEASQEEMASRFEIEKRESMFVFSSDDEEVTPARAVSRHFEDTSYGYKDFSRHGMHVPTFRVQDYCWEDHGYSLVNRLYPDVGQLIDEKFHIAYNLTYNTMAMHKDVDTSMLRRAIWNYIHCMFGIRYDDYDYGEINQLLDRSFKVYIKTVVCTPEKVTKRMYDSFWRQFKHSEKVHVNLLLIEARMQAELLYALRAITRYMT
Protocol: (§1) Expression of flag-WDR24 allows for immunoprecipitation of the Sestrin2/GATOR2 complex from amino acid-starved cells with an anti-flag antibody. […] Finally, to determine whether Sestrins and the GATOR pathway are required for NV-5138 activity, HEK-293T cells null for all three Sestrin isoforms or the GATOR1 component Nprl3 were obtained.
(§2) CETSA was performed as previously described. […] Cells were then collected, centrifuged for 3 min at 300 g at room-temperature (RT), washed with PBS, centrifuged again, and finally resuspended in 1 ml of RT PBS containing EDTA-free protease-inhibitor tablets (Roche). 100 µl of each cell suspension was heated at the noted temperature for 3 min, samples were then placed on the bench at RT for 3 min before being flash-frozen in liquid nitrogen. To lyse the cells, samples were put through two cycles of freeze-thawing followed by centrifugation at 20,000 g for 20 min at 4 °C. 80 µl of the resulting supernatant was denatured and, resolved by SDS-PAGE. Membranes were imaged using the LI-COR imaging system. Antibodies used are listed in Supplementary Information.

Sestrin3 = target: T2, Sestrin3 (Homo sapiens, UniProt P58005); assay: Cellular thermal shift assay (CETSA), intracellular Sestrin3 in HEK-293T cells; assay type: cell-based; details: 300 µM, 30 min, leucine-starved HEK293T cells
T2 construct: endogenous in cells; host or cells: HEK-293T
T2 sequence (P58005 1-492): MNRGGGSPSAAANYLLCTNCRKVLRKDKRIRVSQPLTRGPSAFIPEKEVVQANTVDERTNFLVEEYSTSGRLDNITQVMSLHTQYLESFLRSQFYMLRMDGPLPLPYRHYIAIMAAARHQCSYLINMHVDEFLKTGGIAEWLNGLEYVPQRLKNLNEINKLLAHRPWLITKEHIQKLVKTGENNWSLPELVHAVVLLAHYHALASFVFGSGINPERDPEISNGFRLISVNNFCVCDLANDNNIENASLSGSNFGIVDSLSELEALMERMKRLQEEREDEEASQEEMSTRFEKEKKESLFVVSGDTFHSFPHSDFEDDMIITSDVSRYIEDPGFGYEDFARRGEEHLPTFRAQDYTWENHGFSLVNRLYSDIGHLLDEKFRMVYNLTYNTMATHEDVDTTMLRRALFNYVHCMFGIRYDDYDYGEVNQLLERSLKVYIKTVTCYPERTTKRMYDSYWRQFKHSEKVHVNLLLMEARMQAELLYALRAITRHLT
Protocol: as §1, §2

mTORC1 = mTORC1 activation (phosphorylated S6K1 Thr389 immunoblot) in leucine-starved HEK-293T cells; assay type: cell-based, human
Protocol: as §1
All cell lines were cultured in DMEM supplemented with 10% FBS and maintained at 37 °C and 5% CO2. HEK-293T cells stably expressing Flag-WDR24 was generated as previously described. […] Details of reagent used for cell culture can be found in Supplementary Information.
Cell lysates were prepared as previously described. Lysates were cleared by centrifugation at 13,200 rpm at 4 °C for 8 min. For anti-FLAG IPs, the FLAG-M2 affinity gel was added to approximately 2 mg of lysates and incubated with rotation for 3 h at 4 °C. Following IP, the beads were washed one time with Triton wash buffer containing 500 mM NaCl. […] After compound incubation, IPs were collected by centrifugation. Immunoprecipitated proteins were denatured and, resolved by SDS-PAGE. Membranes were imaged using the LI-COR imaging system. Reagents and antibodies used are listed in Supplementary Information.

Sestrin2 = target: T3, Sestrin2 (Homo sapiens, UniProt P58004); assay: Isothermal titration calorimetry (ITC) on Sestrin2; assay type: binding; set-up: Full-length, codon-optimized human Sestrin2 was cloned into a pMAL6H -C5XT bacterial expression vector; His6-MBP (TEV-cleavable) (N, cleaved yes); made in house; host or cells: Escherichia coli LOBSTR (DE3); details: for Kd: estimated, Sestrin2 pre-exchanged with methionine
T3 sequence (P58004 1-480): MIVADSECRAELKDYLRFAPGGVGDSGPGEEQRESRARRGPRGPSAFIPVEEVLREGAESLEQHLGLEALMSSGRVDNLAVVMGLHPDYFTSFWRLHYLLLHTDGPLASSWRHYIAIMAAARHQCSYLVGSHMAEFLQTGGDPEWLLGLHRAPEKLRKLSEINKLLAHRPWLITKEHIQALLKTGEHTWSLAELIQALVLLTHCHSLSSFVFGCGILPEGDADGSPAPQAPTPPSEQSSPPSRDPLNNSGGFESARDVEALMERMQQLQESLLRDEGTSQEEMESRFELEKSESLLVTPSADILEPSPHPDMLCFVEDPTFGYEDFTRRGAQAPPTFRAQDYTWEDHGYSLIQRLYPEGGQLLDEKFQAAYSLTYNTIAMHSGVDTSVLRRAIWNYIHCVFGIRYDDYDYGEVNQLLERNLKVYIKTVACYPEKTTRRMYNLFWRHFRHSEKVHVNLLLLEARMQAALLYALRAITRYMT
Protocol: Details of NV-5138 synthesis and protein preparation for ITC can be found in Supplementary Information.
For this exchange procedure ion exchange chromatography was used using the following buffers:
Buffer-A: HEPES 20mM pH 7.4, βME 5mM, Buffer-B: HEPES 20mM pH 7.4, βME 5mM, Methionine 5mM, Buffer-C: HEPES 20mM pH 7.4, βME 5mM, NaCl 1M. Sestrin2 (6 mg) was diluted to 5ml with buffer-A, and loaded on a MonoQ HR 5/50 column equilibrated in buffer-A. The column was washed with 2-3 column volume (CV) of buffer-A followed by 130 ml of buffer-B. The protein was then eluted in steps of 300 mM, 500 mM, and 1 M NaCl in buffer-C. The protein eluted in the 300 mM NaCl fractions and was concentrated to 7.6 mg/ml.

ΔTm at 300 µM (Sestrin1) | Kd (Sestrin2) | molar stoichiometry (ITC) (Sestrin2) | SMILES | change of melting temperature of intracellular Sestrin3 (Sestrin3) | mTORC1 activation (pS6K1) (mTORC1; leucine-starved unedited HEK-293T cells) | mTORC1 activation (pS6K1) (mTORC1; leucine-starved HEK-293T cells null for all three Sestrin isoforms) | mTORC1 activation (pS6K1) (mTORC1; leucine-starved HEK-293T cells null for the GATOR1 component Nprl3)
~2 °C | 1500 nM and 1490 nM |  | CC(C)(C[C@H](N)C(=O)O)C(F)F [NV-5138, (S)-2-amino-5,5-difluoro-4,4-dimethylpentanoic acid] | neither NV-5138 nor leucine changed the melting temperature; also recorded: does not impact the melting temperature | activates mTORC1 |  | 
~2 °C | 1600 nM and 1550 nM | 1 | CC(C)C[C@H](N)C(=O)O [Leucine, L-leucine, reference compound] | neither NV-5138 nor leucine changed the melting temperature |  | refractory | refractory
